Structures are written as SMILES. Counter-ions that a name gives are not always drawn.

The test system of one experiment is MV4;11 cells. Put plainly: Cell viability, EZ-Cytox tetrazolium assay, MV4;11. It is filed as cell-based, human. To be noted: Homo sapiens, MV4-11, 72 hours; for GI50: read-out: GI50(nM) MV4;11; for IC50: Table 1. Here is the method:
The cultured cells were incubated at 3° C. with 5% CO2.
(§1) Cell viability was assessed by a tetrazolium-based assay using the EZ-Cytox Cell Viability Assay kit (DaeilLab, Korea). Briefly, 2,000 to 15,000 cells were plated in 96-well plates in 100 μl of medium. The next day, the cells were treated with compounds together with dimethyl sulfoxide (DMSO) as a negative control. Three days (72 hours) after the drug addition, 15 μl of the EZ-Cytox kit reagent was added to each well of the 96-well plate and then incubated at 37° C. in a humidified CO2 incubator for 4 hours. After incubation, the optical density (OD) was measured at a wavelength of 450 nm using a Victor multilabel reader (Perkin Elmer, Waltham, Mass., USA).

Another experiment has as its system MDA-MB-231. Put plainly: Cell viability, EZ-Cytox tetrazolium assay, MDA-MB-231. It is filed as cell-based, human. To be noted: Homo sapiens, MDA-MB-231; 72 hours. How it is done: MDA-MB-231 (metastatic breast cancer, ATCC HTB-26), Jurkat (human acute T lymphocytic leukemia, ATCC TIB-152), and K-562 (human chronic myelogenous leukemia, ATCC CCL-243) cells were cultured in RPMI-1640 (Sigma Co.). MCF7 (human breast adenocarcinoma, ATCC HTB-22) and PC-3 (human prostate adenocarcinoma, ATCC CRL-1435) cells were cultured in DMEM (Sigma Co.) medium supplemented with 10% fetal bovine serum and 1% penicillin/streptomycin. The cultured cells were incubated at 3° C. with 5% CO2.
as §1, with “USA). The IC50 was calculated by nonlinear regression using Prism version 5.01 (GraphPad, La Jolla, Calif., USA).” for “USA).”

As usually defined, the GI50 is the concentration giving 50% growth inhibition. With `O=C1Nc2ccc(I)cc2/C1=C1/Nc2ccccc2/C1=N\OCCN1CCNCC1` [Compound 42, (2Z,3E)-5′-iodo-3-((2-(piperazin-1-yl)ethoxy)imino)-[2,3′-biindolinylidene]-2′-one dihydrochloride], the GI50 in the experiment on MV4;11 cells came out at 9 nM.
Same read-out and setting: under `CN1CCN(CCO/N=C2/C(=C3/C(=O)Nc4ccc(Cl)cc43)Nc3ccccc32)CC1` [Compound 39, (2Z,3E)-5′-chloro-3-((2-(4-methylpiperazin-1-yl)ethoxy)imino)-[2,3′-biindolinylidene]-2′-one dihydrochloride] stands 37 nM.
For orientation: IC50 means the concentration that inhibits the measured activity by half. Read a high IC50 as weaker potency. With `COC(=O)c1ccc2c(c1)/C(=C1/Nc3ccccc3/C1=N\OCCN1CCOCC1)C(=O)N2` [Compound 6, Methyl (2Z,3E)-3-((2-morpholinoethoxy)imino)-2′-oxo-[2,3′-biindolinylidene]-5′-carboxylate hydrochloride], in the experiment on MV4;11 cells, the half-inhibitory concentration (IC50) turned out to be 53 nM.
As for `O=C1Nc2ccc(F)cc2/C1=C1/Nc2ccc(F)cc2/C1=N\OCCN1CCCC1` [Compound 24, (2Z,3E)-5,5′-difluoro-3-((2-(pyrrolidin-1-yl)ethoxy)imino)-[2,3′-biindolinylidene]-2′-one hydrochloride], the values for the GI50 in the experiment with MDA-MB-231 and in the experiment on MV4;11 cells were 347 nM and 634 nM, respectively.
In the case of `CN1CCN(CCO/N=C2/C(=C3/C(=O)Nc4ccc(I)cc43)Nc3ccccc32)CC1` [Compound 43, (2Z,3E)-5′-iodo-3-((2-(4-methylpiperazin-1-yl)ethoxy)imino)-[2,3′-biindolinylidene]-2′-one dihydrochloride], in the experiment on MV4;11 cells, the GI50 stood at 32 nM.
The same measure, in the same setting: under `O=C1Nc2ccc(Br)cc2/C1=C1/Nc2ccccc2/C1=N\OCCN1CCNCC1` [Compound 40, (2Z,3E)-5′-bromo-3-((2-(piperazin-1-yl)ethoxy)imino)-[2,3′-biindolinylidene]-2′-one dihydrochloride] stands 10 nM.
`O=C1Nc2ccc(F)cc2/C1=C1/Nc2ccc(F)cc2/C1=N\OCCN1CCCCC1` [Compound 23, (2Z,3E)-5,5′-difluoro-3-((2-(piperidin-1-yl)ethoxy)imino)-[2,3′-biindolinylidene]-2′-one hydrochloride]: the figures for the GI50 in the experiment on MDA-MB-231 and in the experiment on MV4;11 cells were more than 1 nM and 3.19 nM, respectively.
On to `COc1ccc2c(c1)/C(=C1/Nc3ccccc3/C1=N\OCCN1CCN(C)CC1)C(=O)N2` [Compound 47, (2Z,3E)-5′-methoxy-3-((2-(4-methylpiperazin-1-yl)ethoxy)imino)-[2,3′-biindolinylidene]-2′-one dihydrochloride], for which, in the experiment on MV4;11 cells, the GI50 came out at 7 nM.
Compound `NCCO/N=C1/C(=C2/C(=O)Nc3ccc([N+](=O)[O-])cc32)Nc2ccccc21` [Compound 15, (2Z,3E)-3-((2-aminoethoxy)imino)-5′-nitro-[2,3′-biindolinylidene]-2′-one hydrochloride] gave a GI50 in the experiment on MDA-MB-231 of more than 1 nM.
With `O=C1Nc2ccc(Cl)cc2/C1=C1/Nc2ccccc2/C1=N\OCCN1CCNCC1` [Compound 38, (2Z,3E)-5′-chloro-3-((2-(piperazin-1-yl)ethoxy)imino)-[2,3′-biindolinylidene]-2′-one dihydrochloride], the GI50 with MV4;11 cells was 11 nM.
For `O=C1Nc2ccc(F)cc2/C1=C1/Nc2ccccc2/C1=N\OCCN1CCCCC1` [Compound 35, (2Z,3E)-5′-fluoro-3-((2-(piperidin-1-yl)ethoxy)imino)-[2,3′-biindolinylidene]-2′-one hydrochloride], the GI50 with MDA-MB-231 was 805 nM; in the experiment on MV4;11 cells, 263 nM.
The matching figures for `CN1CCN(CCO/N=C2/C(=C3/C(=O)Nc4ccc([N+](=O)[O-])cc43)Nc3ccc(F)cc32)CC1` [Compound 18, (2Z,3E)-5-fluoro-3-((2-(4-methylpiperazin-1-yl)ethoxy)imino)-5′-nitro-[2,3′-biindolinylidene]-2′-one dihydrochloride]: 69.7 nM and 118 nM.
The corresponding values for `CN1CCN(CCO/N=C2/C(=C3/C(=O)Nc4ccccc43)Nc3ccccc32)CC1` [Compound 29, (2Z,3E)-3-((2-(4-methylpiperazin-1-yl)ethoxy)imino)-[2,3′-biindolinylidene]-2′-one dihydrochloride] are 483 nM and 54.8 nM.
The matching figures for `O=C1Nc2ccc([N+](=O)[O-])cc2/C1=C1/Nc2ccc(F)cc2/C1=N\OCCN1CCCC1` [Compound 20, (2Z,3E)-5-fluoro-5′-nitro-3-((2-(pyrrolidin-1-yl)ethoxy)imino)-[2,3′-biindolinylidene]-2′-one hydrochloride]: 144 nM and 447 nM.
`COc1ccc2c(c1)/C(=C1/Nc3ccccc3/C1=N\OCCN1CCNCC1)C(=O)N2` [Compound 46, (2Z,3E)-5′-methoxy-3-((2-(piperazin-1-yl)ethoxy)imino)-[2,3′-biindolinylidene]-2′-one dihydrochloride]: the GI50 with MV4;11 cells was 17 nM.
For `CN1CCN(CCO/N=C2/C(=C3/C(=O)Nc4ccc([N+](=O)[O-])cc43)Nc3ccc(O)cc32)CC1` [Compound 14, (2Z,3E)-5-hydroxy-3-((2-(4-methylpiperazin-1-yl)ethoxy)imino)-5′-nitro-[2,3′-biindolinylidene]-2′-one dihydrochloride], the GI50 in the experiment on MDA-MB-231 amounted to 29.1 nM; in the experiment on MV4;11 cells, 50 nM.
The matching figures for `O=C1Nc2ccc([N+](=O)[O-])cc2/C1=C1/Nc2ccccc2/C1=N\OCCN1CCNCC1` [Compound 16, (2Z,3E)-5′-nitro-3-((2-(piperazin-1-yl)ethoxy)imino)-[2,3′-biindolinylidene]-2′-one dihydrochloride]: 74.3 nM and 7.01 nM.
The matching figures for `O=C1Nc2ccc([N+](=O)[O-])cc2/C1=C1/Nc2ccc(F)cc2/C1=N\OCCN1CCNCC1` [Compound 17, (2Z,3E)-5-fluoro-5′-nitro-3-((2-(piperazin-1-yl)ethoxy)imino)-[2,3′-biindolinylidene]-2′-one dihydrochloride]: 88.8 nM and 10.2 nM.
The matching figures for `O=C1Nc2ccccc2/C1=C1/Nc2ccccc2/C1=N\OCCN1CCCC1` [Compound 31, (2Z,3E)-3-((2-(pyrrolidin-1-yl)ethoxy)imino)-[2,3′-biindolinylidene]-2′-one hydrochloride]: 313 nM and 104 nM.
For `NC1CCN(CCO/N=C2/C(=C3/C(=O)Nc4ccc(F)cc43)Nc3ccc(F)cc32)CC1` [Compound 25, (2Z,3E)-3-((2-(4-aminopiperidin-1-yl)ethoxy)imino)-5,5′-difluoro-[2,3′-biindolinylidene]-2′-one dihydrochloride], the concentration for 50% growth inhibition (GI50) in the experiment with MDA-MB-231 was more than 1 nM; in the experiment on MV4;11 cells, 85.7 nM.
The matching figures for `O=C1Nc2ccccc2/C1=C1/Nc2ccccc2/C1=N\OCCN1CCCCC1` [Compound 30, (2Z,3E)-3-((2-(piperidin-1-yl)ethoxy)imino)-[2,3′-biindolinylidene]-2′-one hydrochloride]: more than 1 nM and 138 nM.
The compound `COC(=O)c1ccc2c(c1)/C(=C1/Nc3ccccc3/C1=N\OCCN1CCN(C)CC1)C(=O)N2` [Compound 5, Methyl (2Z,3E)-3-((2-(4-methylpiperazin-1-yl)ethoxy)imino)-2′-oxo-[2,3′-biindolinylidene]-5′-carboxylate dihydrochloride] displayed an IC50 in the experiment with MV4;11 cells of 11 nM.
For the compound `CN1CCN(CCO/N=C2/C(=C3/C(=O)Nc4ccc(F)cc43)Nc3ccc(F)cc32)CC1` [Compound 22, (2Z,3E)-5,5′-difluoro-3-((2-(4-methylpiperazin-1-yl)ethoxy)imino)-[2,3′-biindolinylidene]-2′-one dihydrochloride], the GI50 with MDA-MB-231 was found to be 600 nM.

Source of the values: patent publication US11370779B2, “Pharmaceutical composition for preventing or treating acute myeloid leukemia or metastatic breast cancer” (PELEMED CO., LTD., priority 2017, dated 2022).
